{
  "source": "paper PMC7104201",
  "about": "(iScience, 2020)",
  "molecular_target": "CatB (Homo sapiens, UniProt P07858)",
  "format": "biochemical",
  "settings": "pH 5",
  "data": [
    {"substance": "CA-074 methyl ester [CatB inhibitor]", "values": [
      {"measurement": "blocking of CatB-dependent cleavage of EBOV GP", "value": "effectively blocked"}
    ]}
  ]
}
